Read-outs that look alike come from different tables or passages of the source. Some results are limits rather than exact numbers.

Data on two compounds can be found in patent publication US10028952B2, “Methods of treating diabetes or obesity using bile acids, bile salts, and mimics thereof” (SATIOGEN PHARMACEUTICALS, INC., priority 2008, dated 2018).

Experiment [1] addresses T1, TGR5 (Homo sapiens, UniProt Q8TDU6).
T1 construct: expressed in transfected cells; host or cells: CHO cells
T1 sequence (Q8TDU6 1-330): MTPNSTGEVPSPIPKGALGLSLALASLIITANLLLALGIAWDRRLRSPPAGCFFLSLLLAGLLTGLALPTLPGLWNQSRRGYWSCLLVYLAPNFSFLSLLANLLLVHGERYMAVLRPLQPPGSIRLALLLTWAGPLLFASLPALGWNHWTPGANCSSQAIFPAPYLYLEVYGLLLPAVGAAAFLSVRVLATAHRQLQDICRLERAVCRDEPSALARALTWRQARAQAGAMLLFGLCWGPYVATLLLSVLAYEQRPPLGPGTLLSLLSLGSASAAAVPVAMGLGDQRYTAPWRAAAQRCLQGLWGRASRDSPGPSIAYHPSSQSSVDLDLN
The conditions noted are these: TGR5-transfected CHO cells; more potent than the named bile acid; cited from earlier work.

The test system of experiment [2] is overnight-fasted Sprague Dawley rats. The settings on record: 500 mM sodium taurocholate, 3 mL rectal gel, 1% methyl cellulose, over 6 hours. As to the method: Using a stainless steel dissolving vessel fitted with a propeller stirrer 1 gram of methyl cellulose is dissolved in 100 mL of purified water and stirred for 15 minutes. 5 syringes connected to gavage tubes are then each filled with 3 mL of the composition.
The sodium taurocholate rectal gel described above was rectally administered to 6 conscious overnight-fasted subjects (e.g., Sprague Dawley rats) and the control rectal gel without the sodium taurocholate was rectally administered to 5 conscious overnight-fasted subjects (e.g., Sprague Dawley rats). Each rat was then exposed to pre-weighed food and the cumulative consumption of the food was determined over a 6 hour period by weighing the food after 30 minutes, 60 minutes, 120 minutes, 240 minutes and 360 minutes.

The test system is the same in experiment [3]. As to the method:
Using a stainless steel dissolving vessel fitted with a propeller stirrer 1 gram of methyl cellulose is dissolved in 100 mL of purified water and stirred for 15 minutes. 12 syringes connected to gavage tubes are then each filled with 3 mL of the composition.
A 4×4 Latin Square design is used to monitor the effect of the different concentration of taurocholate on the food uptake of overnight-fasted Sprague Dawley rats. Each concentration is tested in triplicate with four rats used per replicate.
The ED50 for inhibition of food intake is obtained by plotting the normalizing the dose response for the anorectic effect of taurocholate to the control data as a log of taurocholate dose vs the percentage of control cumulative intake (FIG. 7).

Experiment [4] has as its system obese human diabetics. The conditions noted are these: rectal, 0.66-20.0 mmoles in 20 ml 1% carboxymethyl cellulose gel, after 100 mg sitagliptin. As to the method: Studies were undertaken after an overnight fast following administration (8-10 hours prior to bile salt) of 100 mg sitagliptin, a DPP-4 inhibitor that protects GLP-1 from inactivation by proteolysis. […] The taurocholic acid was administered into the rectum by syringe in a total volume of 20 ml of 1% carboxymethyl cellulose gel. Each dose was administered on a different day with at least three days between doses.

[5] abbreviates: 50, 150, 500 mM rectal gels, 3 mL.

On to `C[C@H](CCC(=O)O)[C@H]1CC[C@H]2[C@@H]3[C@H](O)C[C@@H]4C[C@H](O)CC[C@]4(C)[C@H]3C[C@H](O)[C@]12C` [CA, cholic acid], for which the “rank of potency (TGR5 agonist potency)” value in experiment [1] is “> hyodeoxycholic acid (HDCA”.

Regarding `C[C@H](CCC(=O)NCCS(=O)(=O)O)[C@H]1CC[C@H]2[C@@H]3[C@H](O)C[C@@H]4C[C@H](O)CC[C@]4(C)[C@H]3C[C@H](O)[C@]12C` [taurocholate, taurocholic acid], the “cumulative food intake compared to rats instilled with gel alone” value in experiment [2] was “reduced”. In experiment [3] (setting [5]), the “cumulative food intake, relation to quantity administered” value was “dose dependently related” and the “time for which differences in food uptake are maintained” value is recorded as “at least 24 hours”. In experiment [3] (24 hour intake, rectal gel), the “ED50 for inhibition of food intake” value stood at 7.2 mmol/rat. Besides, the “ED50 for inhibition of food intake” value in experiment [3] (at 1 hour, 3 mL doses, rectal gel) is 528 mM. Further, in experiment [3] (at 1 hour, rectal gel), the “ED50 for inhibition of food intake” value is reported as 1.6 mmol/rat. For the same compound, in experiment [3] (rectal gel), the “dose dependency for inhibition of intake between 8 and 24 hours” value was “not different”. Further, in experiment [4], the “circulating GLP-1 levels” value was “increase” and the “circulating PYY levels” value is “increase”.
